Measured values published in patent US9107879B1, “Methods of increasing the cytotoxicity of chemotherapeutic agents with multisubstrate inhibitors of histone, protein-lys, polyamine acetylation, and polyamine metabolism” (Vanderbilt University, priority 2010, dated 2015).

Legend:
[1] = system: BT20 breast cancer cell line (TNBC); assay: 3-day viability assay; assay type: cell-based; details: spd-2a increasing doses; camptothecin 5 nM
Excerpt: The effect of spd-2a on the BT20 breast cancer cell line derived form a spontaneous TNBC with wild-type BrCal was examined. […] Having previously established that spd-2a is a therapy sensitizer, the present inventors then examined the combined effects of spd-2a and camptothecin (the basis for the chemotherapeutic drug, Irinotecan).

[2] = target: T1, recombinant p300 (1284-1660) (Homo sapiens, UniProt Q09472); assay: p300 HAT solution assay, H4 peptide substrate, DTNB detection; assay type: biochemical
T1 construct: p300 protein (residues 1284-1660); made in house
T1 sequence (Q09472 1284-1660): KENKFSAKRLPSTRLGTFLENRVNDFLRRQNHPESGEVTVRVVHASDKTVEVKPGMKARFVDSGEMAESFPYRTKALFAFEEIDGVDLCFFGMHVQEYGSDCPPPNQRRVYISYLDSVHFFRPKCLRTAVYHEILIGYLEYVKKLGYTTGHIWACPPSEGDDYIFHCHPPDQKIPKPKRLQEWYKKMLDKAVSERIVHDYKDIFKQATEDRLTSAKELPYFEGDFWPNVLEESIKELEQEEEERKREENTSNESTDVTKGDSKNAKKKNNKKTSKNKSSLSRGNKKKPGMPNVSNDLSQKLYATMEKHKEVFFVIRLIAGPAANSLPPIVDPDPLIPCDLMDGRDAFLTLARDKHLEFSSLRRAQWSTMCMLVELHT
Procedure: (A) Structures of compound 1a (spermidine CoA), and the acetylated side chain of a lysine residue of a polypeptide chain. (B) Inhibition of p300 acetylating activity as a function of 1a concentration. The catalytic domain of recombinant p300 (1284-1660) was assayed under steady state conditions using an N-terminal acetylated histone H4 peptide substrate, Ac-H4(1-19)-NH2. Closed circles represent experimental data points; plain line represents theoretical profile based on data reduction software (Prism) using a one site inhibition model. (C) In vitro assay of p300 activity using a 96-well assay kit (ActivMotif) and an H3 peptide substrate (5-23), according to manufacturer's instructions. Bars represent average of duplicates. BK=background (no enzyme); C=control (no inhibitor); [1a]=50 μM.
Assays were performed using the fluorescent HAT assay kit (Active Motif, Carlsbad, Calif.), an H3 peptide as substrate (residues 5-23), the p300 catalytic domain as enzyme, and 50 μM inhibitor in duplicate, according to the manufacturer's instructions. […] The reaction product, CoASH, was detected spectrophotometrically by reaction with 5,5′-dithiobis-2-nitrobenzoic acid (DTNB). Assays were carried out at 30° C. for 30 minutes, conditions which had previously been determined in kinetic assays to sufficient to achieve steady state. […]

H358 cells = assay: trypan blue exclusion viability assay; assay type: cell-based; details: human
Procedure: Cells were either labeled immediately before treatment (starting DNA synthesis rate), or subjected to the indicated treatments and then pulsed on successive days until day 4. DNA synthesis is represented as the percent of starting DNA synthesis rate. Viability was determined for each treatment condition 24 hours post-start of treatment by the trypan blue exclusion assay, with percentages of viable cells indicated to the right of the graph. […]
Cell viability, measured 18 hours after the start of each treatment by the trypan blue exclusion assay, a measure of cellular membrane integrity, confirmed that single agent treatment with either 1a or camptothecin had essentially no effect on cell viability (≧96% viability for untreated cells or single agent-treated cells).
The present inventors used 96-well viability assays as described in Saadatmandi et al (Cancer Gene Therapy (2002) 9:930-9) to examine the effect of 1a on DNA synthesis in H358 cells, as well as the combined effects of 1a and chemotherapeutic agents. […] Following the 6-hour labeling, cells were harvested and incorporation of [^3H]-thymidine was determined by scintillation counting. […] We measured cell viability 24 hours after the start of each treatment by the trypan blue exclusions assay, a measure of cellular membrane breakdown.

| Ki ([2]; from IC50=Ki(1+Km/S)≅Ki under substrate excess, read-out: estimated Ki for p300 fragment) | IC50 ([2]; histone H4 N-terminal peptide substrate, inferred from inhibitory plot, one site model, read-out: IC50, p300HAT catalytic subunit activity) | SMILES | 3-day viability, single agent [1] | cell viability, trypan blue exclusion (H358 cells; 18 h) | cell viability, trypan blue exclusion (H358 cells; 24 h) |
| --- | --- | --- | --- | --- | --- |
|  |  | CC[C@@]1(O)C(=O)OCc2c1cc1n(c2=O)Cc2cc3ccccc3nc2-1 [camptothecin] | no effect |  |  |
| 50 to 100 µM | 50 to 100 µM | CC(C)(COP(=O)(O)OP(=O)(O)OC[C@H]1O[C@@H](n2cnc3c(N)ncnc32)[C@H](O)[C@@H]1OP(=O)(O)O)[C@@H](O)C(=O)NCCC(=O)NCCSCC(=O)NCCCNCCCCN [1a, spermidine[N1]-CoA] |  | ≥ 96% | ≥ 96% |
